43 molecules from US20230024302A1, “2,3,5-TRISUBSTITUTED PYRAZOLO[1,5-A]PYRIMIDINE COMPOUNDS” (Arcus Biosciences, Inc., priority 2019, published 2023) can be followed below.

One may read the IC50 as the concentration needed to halve the response being measured.

Read-outs that look alike come from different tables or passages of the source. Bounds are passed on as bounds.

In one assay the target is T1, PI3Kγ (p120γ) (Homo sapiens, UniProt P48736).
T1 construct: purchased Promega V1761
Nature of the assay: Inhibition of PI3K kinase activity (ADP Glo), PI3Kγ. As to conditions: read-out: biochemical potency (PI3Kγ IC50). The method, boiled down:
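Recombinant p120γ (8 nM, 2× stock) was preincubated with compound for 1 h at rt in HEPES pH 7.4, NaCl, MgCl2 and 0.05% BSA. Reaction was started with PIP2 (0.1 mg/ml, 2×) and ATP (50 μM, 2×) and ran 60 min at rt. ADP formed was read by ADP-Glo luminescence, and IC50 came from a 4-parameter fit.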

Another assay concerns the target T2, PI3Kγ (Homo sapiens, UniProt P48736).
T2 construct: host or cells: THP-1
Briefly: PI3Kγ cellular assay in THP-1 cells (AKT pS473 AlphaLISA). The format is cell-based. The method, boiled down:
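Serum-starved THP-1 cells (1.8×10^5/well, serum-free DMEM) treated with compounds from 4 nM to 30 μM in 2% DMSO, then stimulated and lysed.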

Where [1] appears, read: AKT pS473, read-out: cellular potency (PI3Kγ IC50).
[2] abbreviates: Table 6, rhMCP-1 stimulated AKT pS473, read-out: cellular potency (PI3Kγ IC50).

T1 sequence (P48736 whole entry): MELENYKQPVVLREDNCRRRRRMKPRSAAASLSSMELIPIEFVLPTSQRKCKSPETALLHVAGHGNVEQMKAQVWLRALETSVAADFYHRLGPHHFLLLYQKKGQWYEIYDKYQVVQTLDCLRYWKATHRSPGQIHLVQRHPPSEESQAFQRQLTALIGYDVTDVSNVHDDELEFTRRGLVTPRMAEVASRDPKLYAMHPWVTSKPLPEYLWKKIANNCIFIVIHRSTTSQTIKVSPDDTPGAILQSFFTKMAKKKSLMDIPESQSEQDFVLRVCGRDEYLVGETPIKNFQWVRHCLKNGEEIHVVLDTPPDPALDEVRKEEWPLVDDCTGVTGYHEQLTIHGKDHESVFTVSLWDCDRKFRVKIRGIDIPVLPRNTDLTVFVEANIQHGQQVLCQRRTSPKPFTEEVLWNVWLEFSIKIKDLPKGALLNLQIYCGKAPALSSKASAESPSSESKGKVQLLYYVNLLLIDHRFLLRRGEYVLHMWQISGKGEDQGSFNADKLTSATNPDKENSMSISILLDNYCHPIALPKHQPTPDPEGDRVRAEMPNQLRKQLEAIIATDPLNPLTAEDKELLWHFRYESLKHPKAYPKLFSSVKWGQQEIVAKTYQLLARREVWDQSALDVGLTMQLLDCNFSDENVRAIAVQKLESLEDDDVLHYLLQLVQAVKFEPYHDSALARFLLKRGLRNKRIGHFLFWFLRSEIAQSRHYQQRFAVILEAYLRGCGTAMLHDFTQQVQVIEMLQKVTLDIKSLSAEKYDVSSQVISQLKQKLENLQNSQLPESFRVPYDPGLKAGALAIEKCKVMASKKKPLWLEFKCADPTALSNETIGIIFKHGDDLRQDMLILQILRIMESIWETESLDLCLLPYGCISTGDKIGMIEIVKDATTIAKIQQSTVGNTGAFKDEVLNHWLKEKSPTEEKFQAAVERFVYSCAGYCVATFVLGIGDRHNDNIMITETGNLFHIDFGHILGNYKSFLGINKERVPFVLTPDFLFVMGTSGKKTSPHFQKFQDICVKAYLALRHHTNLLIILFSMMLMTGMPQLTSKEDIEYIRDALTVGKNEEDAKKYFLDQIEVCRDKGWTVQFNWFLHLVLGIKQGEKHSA
T2 sequence (P48736 whole entry): as above

Turning to `CC(CO)NC(=O)c1c(N)nn2ccc(-c3cc(F)c4c(c3)CN([C@@H](C)C3CC3)C4=O)nc12` (some centres unmarked) [Example 369], the IC50 at PI3Kγ (p120γ) was less than 100 nM; on PI3Kγ (setting [1]), 100 to 1000 nM.
Take `C[C@@H](C1CC1)N1Cc2cc(-c3ccn4nc(N)c(C(=O)NC5CC5)c4n3)cc(F)c2C1=O` [Example 370]: the IC50 on PI3Kγ (p120γ) is less than 100 nM; at PI3Kγ (setting [1]), 100 to 1000 nM.
The corresponding values for `C[C@@H](C1CC1)N1Cc2cc(-c3ccn4nc(N)c(C(=O)Nc5ccc(=O)[nH]c5)c4n3)cc(NS(C)(=O)=O)c2C1=O` [Example 371] are less than 100 nM and 100 to 1000 nM.
The like results for `C[C@@H](C1CC1)N1Cc2cc(-c3ccn4nc(N)c(C(=O)N[C@H]5CCNC5=O)c4n3)cc(NS(C)(=O)=O)c2C1=O` [Example 372] were, in that order, less than 100 nM and 100 to 1000 nM.
Consider `C[C@@H](C1CC1)N1Cc2cc(-c3ccn4nc(N)c(C(=O)NC(C)(C)C(N)=O)c4n3)cc(NS(C)(=O)=O)c2C1=O` [Example 373], for which the IC50 at PI3Kγ (p120γ) was less than 100 nM; at PI3Kγ (setting [1]), 100 to 1000 nM.
`C[C@@H](C1CC1)N1Cc2cc(-c3ccn4nc(N)c(C(=O)N[C@H]5CNC(=O)C5)c4n3)cc(NS(C)(=O)=O)c2C1=O` [Example 374]: the IC50 was less than 100 nM at PI3Kγ (p120γ) and 100 to 1000 nM at PI3Kγ (setting [1]).
The corresponding values for `COC(=O)c1cc(NC(=O)c2c(N)nn3ccc(-c4cc5c(c(NS(C)(=O)=O)c4)C(=O)N([C@@H](C)C4CC4)C5)nc23)ccn1` [Example 375] are less than 100 nM and 100 to 1000 nM.
The like results for `C[C@@H](C1CC1)N1Cc2cc(-c3ccn4nc(N)c(C(=O)N[C@@H](CO)C(F)(F)F)c4n3)cc(NS(C)(=O)=O)c2C1=O` [Example 376] were, in that order, less than 100 nM and 100 to 1000 nM.
The like results for `C[C@@H](C1CC1)N1Cc2cc(-c3ccn4nc(N)c(C(=O)NC5C6CC7CC5CC(O)(C7)C6)c4n3)cc(NS(C)(=O)=O)c2C1=O` (some centres unmarked) [Example 377] were, in that order, less than 100 nM and less than 100 nM.
With `C[C@@H](C1CC1)N1Cc2cc(-c3ccn4nc(N)c(C(=O)Nc5cccc(F)c5)c4n3)cc(NS(C)(=O)=O)c2C1=O` [Example 378], the IC50 at PI3Kγ (p120γ) is less than 100 nM; at PI3Kγ (setting [1]), 100 to 1000 nM.
In the case of `C[C@@H](C1CC1)N1Cc2cc(-c3ccn4nc(N)c(C(=O)Nc5ccnc(CO)c5)c4n3)cc(NS(C)(=O)=O)c2C1=O` [Example 379], the results for the IC50 on PI3Kγ (p120γ) and on PI3Kγ (setting [1]) were less than 100 nM and more than 1000 nM, respectively.
Turning to `COc1ccc(NC(=O)c2c(N)nn3ccc(-c4cc5c(c(NS(C)(=O)=O)c4)C(=O)N([C@@H](C)C4CC4)C5)nc23)cc1` [Example 380], the IC50 at PI3Kγ (p120γ) was less than 100 nM; at PI3Kγ (setting [1]), 100 to 1000 nM.
The corresponding values for `C[C@@H](C1CC1)N1Cc2cc(-c3ccn4nc(N)c(C(=O)NCC5(O)CC5)c4n3)cc(NS(C)(=O)=O)c2C1=O` [Example 381] are less than 100 nM and 100 to 1000 nM.
Consider `C[C@H](NC(=O)c1c(N)nn2ccc(-c3cc4c(c(NS(C)(=O)=O)c3)C(=O)N([C@@H](C)C3CC3)C4)nc12)C(N)=O` [Example 382], for which the figures for the IC50 at PI3Kγ (p120γ) and at PI3Kγ (setting [1]) were less than 100 nM and 100 to 1000 nM, respectively.
On to `C[C@@H](C1CC1)N1Cc2cc(-c3ccn4nc(N)c(C(=O)NCCO)c4n3)cc(NS(C)(=O)=O)c2C1=O` [Example 383], for which the results for the IC50 at PI3Kγ (p120γ) and on PI3Kγ (setting [1]) were less than 100 nM and 100 to 1000 nM, respectively.
As to `C[C@@H](C1CC1)N1Cc2cc(-c3ccn4nc(N)c(C(=O)N[C@@H]5CCCC[C@H]5O)c4n3)cc(NS(C)(=O)=O)c2C1=O` [Example 384], the half-maximal inhibitory concentration (IC50) at PI3Kγ (p120γ) is less than 100 nM; at PI3Kγ (setting [1]), 100 to 1000 nM.
For `COC[C@@H](C)NC(=O)c1c(N)nn2ccc(-c3cc4c(c(NS(C)(=O)=O)c3)C(=O)N([C@@H](C)C3CC3)C4)nc12` [Example 385], the figures for the 50% inhibitory concentration (IC50) on PI3Kγ (p120γ) and on PI3Kγ (setting [1]) were less than 100 nM and 100 to 1000 nM, respectively.
The corresponding values for `C[C@@H](C1CC1)N1Cc2cc(-c3ccn4nc(N)c(C(=O)Nc5cccc(C#N)c5)c4n3)cc(NS(C)(=O)=O)c2C1=O` [Example 386] are less than 100 nM and 100 to 1000 nM.
The corresponding values for `COc1cncc(NC(=O)c2c(N)nn3ccc(-c4cc5c(c(NS(C)(=O)=O)c4)C(=O)N([C@@H](C)C4CC4)C5)nc23)c1` [Example 387] are less than 100 nM and 100 to 1000 nM.
The like results for `C[C@@H](C1CC1)N1Cc2cc(-c3ccn4nc(N)c(C(=O)Nc5ccc(F)cc5)c4n3)cc(NS(C)(=O)=O)c2C1=O` [Example 388] were, in that order, less than 100 nM and 100 to 1000 nM.
Consider `C[C@@H](C1CC1)N1Cc2cc(-c3ccn4nc(N)c(C(=O)Nc5ccc(CC(F)(F)F)nc5)c4n3)cc(NS(C)(=O)=O)c2C1=O` [Example 389], for which the IC50 was less than 100 nM on PI3Kγ (p120γ) and 100 to 1000 nM at PI3Kγ (setting [1]).
The corresponding values for `COCC(C)(C)NC(=O)c1c(N)nn2ccc(-c3cc4c(c(NS(C)(=O)=O)c3)C(=O)N([C@@H](C)C3CC3)C4)nc12` [Example 390] are less than 100 nM and 100 to 1000 nM.
The like results for `Cc1ccccc1NC(=O)c1c(N)nn2ccc(-c3cc4c(c(NS(C)(=O)=O)c3)C(=O)N([C@@H](C)C3CC3)C4)nc12` [Example 391] were, in that order, less than 100 nM and 100 to 1000 nM.
The corresponding values for `C[C@@H](C1CC1)N1Cc2cc(-c3ccn4nc(N)c(C(=O)Nc5ccc(Cl)cc5)c4n3)cc(NS(C)(=O)=O)c2C1=O` [Example 392] are less than 100 nM and more than 1000 nM.
Turning to `C[C@@H](C1CC1)N1Cc2cc(-c3ccn4nc(N)c(C(=O)Nc5ccc(C#N)cc5)c4n3)cc(NS(C)(=O)=O)c2C1=O` [Example 393], the figures for the IC50 on PI3Kγ (p120γ) and at PI3Kγ (setting [1]) were less than 100 nM and 100 to 1000 nM, respectively.
The like results for `C[C@@H](C1CC1)N1Cc2cc(-c3ccn4nc(N)c(C(=O)NC5CC5(C)C)c4n3)cc(NS(C)(=O)=O)c2C1=O` (some centres unmarked) [Example 394] were, in that order, less than 100 nM and 100 to 1000 nM.
`COC(=O)c1ccc(NC(=O)c2c(N)nn3ccc(-c4cc5c(c(NS(C)(=O)=O)c4)C(=O)N([C@@H](C)C4CC4)C5)nc23)cn1` [Example 395]: the values for the concentration for half-maximal inhibition (IC50) on PI3Kγ (p120γ) and on PI3Kγ (setting [1]) were less than 100 nM and 100 to 1000 nM, respectively.
The corresponding values for `C[C@@H](C1CC1)N1Cc2cc(-c3ccn4nc(N)c(C(=O)Nc5ccccn5)c4n3)cc(NS(C)(=O)=O)c2C1=O` [Example 396] are less than 100 nM and 100 to 1000 nM.
The like results for `C[C@@H](C1CC1)N1Cc2cc(-c3ccn4nc(N)c(C(=O)Nc5ccccc5F)c4n3)cc(NS(C)(=O)=O)c2C1=O` [Example 397] were, in that order, less than 100 nM and 100 to 1000 nM.
The like results for `COc1ccccc1NC(=O)c1c(N)nn2ccc(-c3cc4c(c(NS(C)(=O)=O)c3)C(=O)N([C@@H](C)C3CC3)C4)nc12` [Example 398] were, in that order, less than 100 nM and more than 1000 nM.
Consider `CC(C)[C@H](CO)NC(=O)c1c(N)nn2ccc(-c3cc4c(c(NS(C)(=O)=O)c3)C(=O)N([C@@H](C)C(F)(F)F)C4)nc12` [Example 399], for which the IC50 at PI3Kγ (p120γ) was less than 100 nM; at PI3Kγ (setting [1]), 100 to 1000 nM.
As for `CC(C)[C@H](CO)NC(=O)c1c(N)nn2ccc(-c3cc4c(c(NS(C)(=O)=O)c3)C(=O)N([C@@H](C3CC3)C(F)(F)F)C4)nc12` [Example 400], the half-maximal inhibitory concentration (IC50) at PI3Kγ (p120γ) was less than 100 nM; on PI3Kγ (setting [1]), 100 to 1000 nM.
As to `C[C@H](N1Cc2cc(-c3ccn4nc(N)c(C(=O)Nc5cccnc5)c4n3)cc(NS(C)(=O)=O)c2C1=O)C(F)(F)F` [Example 401], the IC50 at PI3Kγ (p120γ) is less than 100 nM; on PI3Kγ (setting [1]) it was 100 to 1000 nM.
Consider `CC(C)[C@H](N1Cc2cc(-c3ccn4nc(N)c(C(=O)NC5CC5)c4n3)cc(NS(C)(=O)=O)c2C1=O)C(F)(F)F` [Example 402], for which the figures for the IC50 on PI3Kγ (p120γ) and on PI3Kγ (setting [1]) were less than 100 nM and 100 to 1000 nM, respectively.
Regarding `C[C@H](N1Cc2cc(-c3ccn4nc(N)c(C(=O)Nc5ccccc5)c4n3)cc(NS(C)(=O)=O)c2C1=O)C(F)(F)F` [Example 403], the IC50 on PI3Kγ (p120γ) is less than 100 nM; at PI3Kγ (setting [1]), 100 to 1000 nM.
For the molecule `C[C@H](CO)NC(=O)c1c(N)nn2ccc(-c3cc4c(c(N(C)S(C)(=O)=O)c3)C(=O)N([C@@H](C)C3CC3)C4)nc12` [Example 408], the IC50 is less than 100 nM at PI3Kγ (p120γ) (Table 6, p120γ) and 100 to 1000 nM on PI3Kγ (setting [2]).
On to `C[C@@H](C1CC1)N1Cc2cc(-c3ccn4nc(N)c(C(=O)NC5CC5)c4n3)cc(NS(=O)(=O)N3CCOCC3)c2C1=O` [Example 409], for which the IC50 was less than 100 nM at PI3Kγ (p120γ) (Table 6, p120γ) and 100 to 1000 nM on PI3Kγ (setting [2]).
The like results for `C[C@@H](C1CC1)N1Cc2cc(-c3ccn4nc(N)c(C(=O)NC5CC5)c4n3)cc(NS(=O)(=O)N(C)C)c2C1=O` [Example 410] were, in that order, less than 100 nM and less than 100 nM.
Consider `C[C@@H](C1CC1)N1Cc2cc(-c3ccn4nc(N)c(C(=O)N[C@H]5CC[C@H](C(=O)O)CC5)c4n3)cc(OC(F)(F)F)c2C1=O` [Example 411], for which the IC50 is less than 100 nM at PI3Kγ (p120γ) (Table 6, p120γ) and 100 to 1000 nM on PI3Kγ (setting [2]).
The corresponding values for `C[C@@H](C1CC1)N1Cc2cc(-c3ccn4nc(N)c(C(=O)N[C@@H]5CCC(=O)NC5)c4n3)cc(OC(F)(F)F)c2C1=O` [Example 412] are less than 100 nM and 100 to 1000 nM.
The like results for `C[C@@H](C1CC1)N1Cc2cc(-c3ccn4nc(N)c(C(=O)N[C@H]5CCC(=O)NC5)c4n3)cc(OC(F)(F)F)c2C1=O` [Example 413] were, in that order, less than 100 nM and 100 to 1000 nM.
The corresponding values for `C[C@@H](C1CC1)N1Cc2cc(-c3ccn4nc(N)c(C(=O)NCc5cccnc5)c4n3)cc(OC(F)(F)F)c2C1=O` [Example 414] are less than 100 nM and 100 to 1000 nM.
On to `C[C@H](N1Cc2cc(-c3ccn4nc(N)c(C(=O)NC5CC5)c4n3)cc(OC(F)(F)F)c2C1=O)C(F)(F)F` [Example 415], for which the IC50 at PI3Kγ (p120γ) (Table 6, p120γ) was less than 100 nM; on PI3Kγ (setting [2]), 100 to 1000 nM.
